Data taken from patent US20080031955A1, “Product Comprising a Beta-Lactam Antibiotic” (priority 2004, published 2008).

Columns and labels:
Format in all cases: physicochemical
[1] = Acetone content of the dried product by gas chromatography
Description: The acetone content or concentration of organic solvent may be determined in any suitable manner, e.g. by gas chromatography.
The acetone content of the dried product was analysed using a Hewlett-Packard Gas Chromatograph, model 5890. As a sample solution was used a solution obtained by dissolving 0.500 g of product in 10.0 ml of water (with the aid of some drops of NaOH 1 N). As a standard (reference) solution was used a solution obtained by dissolving 0.5 g of acetone standard in 50.0 ml of water, from which 1.0 ml was taken and diluted with 50.0 ml water.

[2] = Color C400 measured at 400 nm (Ph. Eur.); conditions: color measured at a wavelength of 400 nm
Text: In a preferred embodiment, the product according to the invention has a C400≦0.20, wherein C400 is the color measured at a wavelength of 400 nm (Ph.Eur.). Preferably, the product has a C400≦0.15, preferably a C400≦0.10.

[3] = Water content (Karl Fisher) of the dried product; conditions: after drying
Description: The wet cake was fluidised with air at ambient temperature during 15 to 30 minutes, after which it was fluidised with warm air (30-40° C.) during 45 to 75 minutes (air flow 1800 m^3/hr), until the water content was 5.2 wt. % (Karl Fisher).
(product temperature 40° C.). The final pressure was 20 mbar. […] The water content was 5.2 wt. % (Karl Fisher).

Row | Compound | Acetone content ([1]; dried cephalexin product) [mg/kg] | C400 (Ph. Eur.) [2] | water content (Karl Fisher) [3] [wt. %] | Acetone content ([1]; dried product, fluid bed dryer)
1 | CC1=C(C(=O)O)N2C(=O)[C@@H](NC(=O)[C@H](N)c3ccccc3)[C@H]2SC1.O [Example I, cephalexin] | 10 | 0.026 | 5.2 | –
2 | CC1=C(C(=O)O)N2C(=O)[C@@H](NC(=O)[C@H](N)c3ccccc3)[C@H]2SC1 [Comparative experiment A, cephalexin] | 500 | 0.025 | 5.2 | 500 mg of acetone per kg of cephalexin
